# Test results from patent publication US8673880B2, “Prevention and/or treatment of neurodegenerative disorders” (The University Of Liverpool, priority 2006, dated 2014).
# Tests used:
# Assay type in all cases: biochemical
# recombinant human BACE-1 = target: T1, recombinant human BACE-1 (Homo sapiens, UniProt P56817); assay: BACE-1 inhibition by in vitro FRET peptide cleavage assay; conditions: for IC50 (BACE-1): FRET peptide cleavage; for Therapeutic ratio (BACE/Xa): calculated from IC50 against BACE-1/anticoagulant activity; for EC50 (BACE inhibition): Example 2, Table 2
# T1 construct: purchased Sigma
# Description: In vitro cleavage of APP by BACE-1 was measured using a FRET peptide cleavage assay.
# The ability of the compounds to inhibit BACE-1 cleavage of APP was assessed using a fluorescent resonance energy transfer (FRET) peptide cleavage assay employing the FRET peptide 5-FAM-Glu-Val-Asn-Leu-Asp-Ala-Phe-Lys(QXL520)-OH, containing the Swedish amino acid variant (Anaspec, Inc., CA, USA). When intact, the amino terminal fluorophore is quenched, but upon enzymatic cleavage the fluorophore is released from quencher and fluoresces (520 nm). Assays were performed in triplicate in 96 well black plates (20 mM sodium acetate, 0.1% Triton-X-100, pH 4.5; 2.5 μM peptide per well and 4.0×10^−3 units/well of recombinant human BACE-1 (Sigma)). The appropriate controls for enzyme activity and background fluorescence were employed and plates were incubated (1 h, 25° C., stopped with 2.5 M sodium acetate) Inhibitors were added in a concentration range from 1000-0.0001 μg/ml. Fluorescence 480ex/520em was measured on a Polarstar plate reader (BMG LabTechnologies, UK) and data were analysed by plotting log10 concentration of inhibitor against percent inhibition and fitting a four parameter sigmoidal curve using BioDataFit 1.02 (Chang Bioscience, USA).
# Factor Xa = assay: Anti Factor Xa (anticoagulant) activity, Coatest Heparin test kit; conditions: for Anti-coagulant activity: anti-factor Xa, percentage of PIMH (defined as 100%); for Anticoagulant activity (%): Example 2, Table 2, standard heparin = 100
# Description: Anti Factor Xa activity was measured against a porcine mucosal heparin (PIMH) standard of known activity (Sigma, UK) using a diagnostic grade Coatest Heparin test kit (Chromogenix, MA, USA), adapted to a 96 well plate format, reading A405 (Polarstar plate reader (BMG LabTechnologies, UK)).
# cathepsin D = target: T2, cathepsin D (Homo sapiens, UniProt P07339); assay: Cathepsin D FRET cleavage assay
# T2 construct: purchased Sigma, UK
# Description: (§1) The ability of compounds to inhibit the structurally related proteases pepsin and cathepsin D (Sigma, UK) was measured by FRET cleavage assay (5 pmol enzyme/well, EnzChek Protease Assay kit (Molecular Probes, UK) according to manufacturer's instructions). Activity against human recombinant renin (Cayman Chemical, MI, USA), was measured by FRET peptide cleavage assay (0.08 pMoles enzyme/well, using the Renin Substrate 1 (Molecular Probes, Invitrogen, UK) according to manufacturer's instructions. IC50 values were calculated as described above.
# human recombinant renin = target: T3, human recombinant renin (Homo sapiens, UniProt P00797); assay: Renin FRET peptide cleavage assay; conditions: concentrations up to 1000 μg/ml
# T3 construct: purchased Cayman Chemical
# T3 sequence (P00797 67-406): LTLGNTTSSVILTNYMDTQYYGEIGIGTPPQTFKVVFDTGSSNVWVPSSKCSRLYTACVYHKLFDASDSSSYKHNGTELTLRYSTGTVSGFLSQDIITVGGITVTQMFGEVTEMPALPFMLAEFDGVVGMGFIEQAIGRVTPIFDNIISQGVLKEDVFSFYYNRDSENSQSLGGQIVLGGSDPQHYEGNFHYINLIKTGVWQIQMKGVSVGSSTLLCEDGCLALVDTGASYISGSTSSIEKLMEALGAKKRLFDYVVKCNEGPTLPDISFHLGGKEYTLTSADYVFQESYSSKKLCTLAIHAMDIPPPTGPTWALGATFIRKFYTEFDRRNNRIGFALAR
# Description: as §1
# [1] = target: T4, Aβ peptide (Amyloid β Protein Fragment 1-42) (Homo sapiens, UniProt P05067); assay: Aβ aggregation assay (Thioflavin T); conditions: for increase in the time taken to reach half-maximal peptide aggregation: concentration of 100 μg/ml, compared to parental PMH; for rate of A-β aggregation, % slower: compared to intact heparin
# T4 construct: Amyloid β Protein Fragment 1-42; Sigma A9810; purchased Sigma A9810
# Description: The Aβ peptide was prepared by addition of 1 ml of hexafluoro-2-propanol to 1 mg Aβ peptide (Amyloid β Protein Fragment 1-42; Sigma A9810) and disaggregation at room temperature for 1 hour. The resulting material was divided into 50 μl (50 μg) aliquots and dried in Speed Vac for approximately 2 hours, followed by storage at −20° C. The Thioflavin T (Sigma T-3516) solution was prepared as a 5 mM solution in 50 mM Glycine-NaOH pH 8.5, and stored in the dark at 4° C. Thioflavin T assay buffer comprising 20 μl Thioflavin T solution with 50 μl 1M DTT and […] assay Buffer (10 mM HEPES/100 mM NaCl pH 7.4) was kept on ice. 50 μl of 20 mM NaOH was added to 50 μg of Aβ peptide. 2.5 ml of Thioflavin T assay buffer was then added to this Aβ peptide solution, making “Aβ buffer”. The remaining 2.5 ml of Thioflavin T assay buffer was the blank buffer, and both were kept on ice. Six replicates of sample dilutions (1:1 in assay buffer) were pipetted into a 96 well black plate (Greiner 655076; 100 μl/well) and the plate was kept on ice. 100 μl/well of Aβ buffer was added to the samples (in triplicate), and 100 μl/well of the blank buffer added to a further three sample replicates. The 96 well plate was read (450 nm excitation wavelength and 490 nm emission wavelength), taking a reading every 150 seconds for 250 cycles one plate reader set at 37° C.
# pepsin = target: T5, pepsin (Sus scrofa, UniProt P00791); assay: Pepsin FRET cleavage assay
# T5 construct: purchased Sigma, UK
# Description: as §1
# T2 sequence (P07339 65-412, species assumed): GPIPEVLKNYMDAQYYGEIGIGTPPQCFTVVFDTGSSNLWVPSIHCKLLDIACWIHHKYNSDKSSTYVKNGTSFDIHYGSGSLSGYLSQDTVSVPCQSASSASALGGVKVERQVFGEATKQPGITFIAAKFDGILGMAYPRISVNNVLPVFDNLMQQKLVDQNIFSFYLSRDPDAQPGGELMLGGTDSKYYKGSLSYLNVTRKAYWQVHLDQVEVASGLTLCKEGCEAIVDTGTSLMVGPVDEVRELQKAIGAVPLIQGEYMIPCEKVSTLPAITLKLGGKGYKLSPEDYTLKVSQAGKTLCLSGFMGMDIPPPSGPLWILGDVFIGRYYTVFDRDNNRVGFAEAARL
# T5 sequence (P00791 60-385): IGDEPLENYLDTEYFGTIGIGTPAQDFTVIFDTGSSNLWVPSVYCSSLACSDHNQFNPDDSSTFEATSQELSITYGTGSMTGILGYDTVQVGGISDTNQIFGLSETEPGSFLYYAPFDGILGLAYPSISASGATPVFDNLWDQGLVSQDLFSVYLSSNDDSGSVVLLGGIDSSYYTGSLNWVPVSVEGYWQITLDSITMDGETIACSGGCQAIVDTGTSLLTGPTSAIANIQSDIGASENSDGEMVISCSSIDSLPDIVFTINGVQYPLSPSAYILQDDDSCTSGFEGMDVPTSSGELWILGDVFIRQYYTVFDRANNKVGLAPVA
# T1 sequence (P56817 46-501): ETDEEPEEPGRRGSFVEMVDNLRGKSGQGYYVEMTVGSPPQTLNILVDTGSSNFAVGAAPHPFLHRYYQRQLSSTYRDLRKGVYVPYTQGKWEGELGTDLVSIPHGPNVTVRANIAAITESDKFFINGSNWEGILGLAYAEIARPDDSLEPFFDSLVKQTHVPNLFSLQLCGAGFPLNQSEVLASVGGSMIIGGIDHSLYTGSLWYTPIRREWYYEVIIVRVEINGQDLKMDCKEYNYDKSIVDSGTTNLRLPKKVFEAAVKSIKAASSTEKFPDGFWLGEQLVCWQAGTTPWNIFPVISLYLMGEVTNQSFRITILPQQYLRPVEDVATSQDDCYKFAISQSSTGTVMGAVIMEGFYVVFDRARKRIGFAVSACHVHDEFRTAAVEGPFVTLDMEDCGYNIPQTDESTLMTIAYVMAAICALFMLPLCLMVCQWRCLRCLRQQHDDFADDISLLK
# T4 sequence (P05067 672-713): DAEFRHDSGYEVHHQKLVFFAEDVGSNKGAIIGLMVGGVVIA
Compound,IC50 (BACE-1) (recombinant human BACE-1; Table 1),Therapeutic ratio (BACE/Xa) (recombinant human BACE-1),Anti-coagulant activity (Factor Xa),IC50 against cathepsin D (cathepsin D),inhibitory effect on renin (human recombinant renin),increase in the time taken to reach half-maximal peptide aggregation [1],IC50 against pepsin (pepsin),other results
"6-O-desulphated, 2-O-desulphated, N-acetylated heparin [Compound 8]",>100 μg/ml,1,0.03%,,,,,BACE-1 inhibitory activity in words (recombinant human BACE-1; Table 1): almost abolished
Ido 2-de-O-sulphated heparin [Compound 3],0.053 μg/ml,147,0.4%,0.77 µg/mL,None of the compounds exerted an inhibitory effect on renin,50%,,
"6-O-desulphated, N-acetylated heparin [Compound 6]",0.410 μg/ml,237,0.03%,,,,,
"porcine intestinal mucosal heparin [Compound 1, reference compound]",0.028 μg/ml,1,100%,0.1 µg/mL,None of the compounds exerted an inhibitory effect on renin,,0.23 µg/mL,EC50 (BACE inhibition) (recombinant human BACE-1): 0.027 µg/mL; Anticoagulant activity (%) (Factor Xa): 100%; enhancement of Aβ aggregation ([1]; FIG. 2): maximum enhancement
N-acetyl heparin [Compound 2],0.031 μg/ml,3136,0.03%,0.27 µg/mL,None of the compounds exerted an inhibitory effect on renin,50%,3.27 µg/mL,"fold less potent than PIMH against pepsin (pepsin; compared with compound 1): 14 fold; rate of A-β aggregation, % slower ([1]; FIG. 2): 50%"
Per-sulphated heparin [Compound 9],0.053 μg/ml,2,35.0%,,,,,
6-O-desulphated heparin [Compound 5],0.100 μg/ml,61,0.5%,,,,,
"6-O-desulphated, 2-O-desulphated heparin [Compound 7]",0.786 μg/ml,123,0.03%,,,,,
"NCCCS(=O)(=O)O [Compound 10, 3-amino-1-propanesulfonic acid, reference compound]",No,,,,,,,inhibition of BACE-1 (recombinant human BACE-1; even at high concentrations (1000 μg/ml)): did not inhibit BACE-1
"Ido 2-de-O-sulphated, N-acetylated heparin [Compound 4]",0.091 μg/ml,1092,0.03%,,None of the compounds exerted an inhibitory effect on renin,100%,> 1000 µg/mL,"EC50 fold lower than unmodified PMH (recombinant human BACE-1; Example 2): approximately 3 fold; EC50 (BACE inhibition) (recombinant human BACE-1): 0.089 µg/mL; anti factor Xa activity, fold lower than PIMH (Factor Xa; Example 1): at least 3000 fold; Anticoagulant activity (%) (Factor Xa): <0.03%; rate of A-β aggregation, % slower ([1]; FIG. 2): 100%"
